Where only a bound is given, the exact number is not on record here.

The values below come from patent US20230102554A1 (GB002, INC., priority 2019, published 2023).

Test [1] concerns the target T1, Human PDGFRβ, cytoplasmic domain (GST-PDGFRβ) (Homo sapiens, UniProt P09619).
T1 construct: made in house
The test is described as follows: Human PDGFRβ biochemical inhibition assay (off-chip Mobility Shift Assay). The gist of the method:
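GST-tagged cytoplasmic domain (aa 557-1106) from baculovirus was incubated 1 h at room temperature with compound, CSKtide, ATP at Km and Mg²⁺ in HEPES buffer, pH 7.5. Phosphorylated and unphosphorylated peptide were separated by off-chip mobility shift, and the product ratio P/(P+S) gave percent inhibition.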

Test [2] has as its target T2, Human PDGFRα, cytoplasmic domain (GST-PDGFRα) (Homo sapiens, UniProt P16234).
T2 construct: made in house
The test is described as follows: Human PDGFRα biochemical inhibition assay (off-chip Mobility Shift Assay).

T2 sequence (P16234 550-1089 T674I): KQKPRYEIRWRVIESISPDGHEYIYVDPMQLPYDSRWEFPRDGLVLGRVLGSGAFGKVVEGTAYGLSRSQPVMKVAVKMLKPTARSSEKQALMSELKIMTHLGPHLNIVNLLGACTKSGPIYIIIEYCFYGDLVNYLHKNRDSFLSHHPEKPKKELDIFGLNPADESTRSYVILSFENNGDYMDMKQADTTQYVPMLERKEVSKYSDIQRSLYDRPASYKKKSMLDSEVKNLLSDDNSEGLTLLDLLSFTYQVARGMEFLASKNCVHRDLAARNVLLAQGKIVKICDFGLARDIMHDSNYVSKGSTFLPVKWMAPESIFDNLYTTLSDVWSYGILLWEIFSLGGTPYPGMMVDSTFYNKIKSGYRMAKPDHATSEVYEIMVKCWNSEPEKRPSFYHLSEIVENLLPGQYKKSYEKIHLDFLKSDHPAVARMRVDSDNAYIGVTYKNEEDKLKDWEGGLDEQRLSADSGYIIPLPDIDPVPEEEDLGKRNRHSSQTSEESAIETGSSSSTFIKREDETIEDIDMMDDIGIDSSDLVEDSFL
T1 sequence (P09619 with tags, fused parts or gaps): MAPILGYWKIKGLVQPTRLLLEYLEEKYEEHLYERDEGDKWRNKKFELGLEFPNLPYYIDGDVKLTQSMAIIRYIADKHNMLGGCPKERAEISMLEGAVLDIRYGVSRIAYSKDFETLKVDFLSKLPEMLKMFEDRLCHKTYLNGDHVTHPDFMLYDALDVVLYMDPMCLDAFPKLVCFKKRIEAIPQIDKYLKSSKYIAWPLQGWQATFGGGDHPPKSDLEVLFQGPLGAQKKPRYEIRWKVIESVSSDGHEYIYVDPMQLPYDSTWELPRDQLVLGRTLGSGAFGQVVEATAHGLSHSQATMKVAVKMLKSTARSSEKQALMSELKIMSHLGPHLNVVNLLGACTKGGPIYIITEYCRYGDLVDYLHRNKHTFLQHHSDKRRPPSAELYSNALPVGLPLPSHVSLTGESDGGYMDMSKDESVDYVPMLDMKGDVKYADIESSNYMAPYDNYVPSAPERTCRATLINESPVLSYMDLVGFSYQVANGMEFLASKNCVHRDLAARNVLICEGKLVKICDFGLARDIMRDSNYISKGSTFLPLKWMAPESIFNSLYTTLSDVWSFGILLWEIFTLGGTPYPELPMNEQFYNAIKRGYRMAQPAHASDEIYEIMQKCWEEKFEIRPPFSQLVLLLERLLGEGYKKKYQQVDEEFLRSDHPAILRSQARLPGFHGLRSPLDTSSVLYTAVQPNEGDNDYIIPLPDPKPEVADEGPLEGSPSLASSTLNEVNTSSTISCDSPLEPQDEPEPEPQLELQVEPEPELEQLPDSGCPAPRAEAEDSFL

As a reminder, the IC50 is the point on the concentration scale where inhibition reaches its midpoint. For the molecule `CCn1cc2ncc(N[C@@H](C)c3cccc(NC(=O)c4ccc(C=O)c(C)c4)c3)nc2n1` [Compound 401, (S)-N-(3-(1-((2-ethyl-2H-pyrazolo[3,4-b]pyrazin-6-yl)amino)ethyl)phenyl)-4-formyl-3-methylbenzamide], the IC50 in test [1] and in test [2] was < 300 nM in each case.

Turning to `CCn1cc2ncc(N[C@@H](C)c3cccc(NC(=O)c4ccc(CN5CCN(C)CC5)c(C)c4)c3)nc2n1` [Compound 402, (S)-N-(3-(1-((2-ethyl-2H-pyrazolo[3,4-b]pyrazin-6-yl)amino)ethyl)phenyl)-3-methyl-4-((4-methylpiperazin-1-yl)methyl)benzamide], the half-maximal inhibitory concentration (IC50) in test [1] and in test [2] was < 300 nM throughout.

As for `CCn1cc2ncc(N[C@@H](C)c3cccc(NC(=O)c4ccc(CN5CCOCC5)c(C)c4)c3)nc2n1` [Compound 403, (S)-N-(3-(1-((2-ethyl-2H-pyrazolo[3,4-b]pyrazin-6-yl)amino)ethyl)phenyl)-3-methyl-4-(morpholinomethyl) benzamide], the IC50 in test [1] and in test [2] was < 300 nM each time.

Regarding `CCn1cc2ncc(N[C@@H](C)c3cccc(NC(=O)c4ccc(CN5CCCC5)c(C)c4)c3)nc2n1` [Compound 404, (S)-N-(3-(1-((2-ethyl-2H-pyrazolo[3,4-b]pyrazin-6-yl)amino)ethyl)phenyl)-3-methyl-4-(pyrrolidin-1-ylmethyl) benzamide], the IC50 in test [1] and in test [2] was < 300 nM throughout.

As for `CCn1cc2ncc(N[C@@H](C)c3cccc(NC(=O)c4ccc(NC(C)C)c(C)c4)c3)nc2n1` [Compound 405, (S)-N-(3-(1-((2-ethyl-2H-pyrazolo[3,4-b]pyrazin-6-yl)amino)ethyl)phenyl)-4-(isopropylamino)-3-methylbenzamide], the IC50 in test [1] and in test [2] was < 300 nM in each case.

For the molecule `CCn1cc2ncc(N[C@@H](C)c3cccc(NC(=O)Nc4ccc(OC(F)(F)F)nc4)c3)nc2n1` [Compound 407, (S)-1-(3-(1-((2-ethyl-2H-pyrazolo[3,4-b]pyrazin-6-yl)amino)ethyl)phenyl)-3-(6-(trifluoromethoxy)pyridin-3-yl) urea], the IC50 in test [1] and in test [2] was < 300 nM each time.

Take `CC[C@H](Nc1cnc2cn(CC)nc2n1)c1cccc(NC(=O)c2cncc(C)c2)c1` [Compound 408, (S)-N-(3-(1-((2-ethyl-2H-pyrazolo[3,4-b]pyrazin-6-yl)amino)propyl)phenyl)-5-methylnicotinamide]: the IC50 in test [1] is ≥ 1000 nM; in test [2], 300 to 1000 nM.

In the case of `Cc1cncc(C(=O)Nc2ccc(F)c([C@H](C)Nc3cnc4cn(CC5CCNC5)nc4n3)c2)c1` (stereo partly drawn) [Compound 410, N-(4-fluoro-3-((1S)-1-((2-(pyrrolidin-3-ylmethyl)-2H-pyrazolo[3,4-b]pyrazin-6-yl)amino)ethyl)phenyl)-5-methylnicotinamide], the IC50 in test [1] and in test [2] was < 300 nM in each case.

For the molecule `Cc1cncc(C(=O)Nc2ccc(F)c([C@H](C)Nc3cnc4cn(CC5CNCCO5)nc4n3)c2)c1` (stereo partly drawn) [Compound 411, N-(4-fluoro-3-((1S)-1-((2-(morpholin-2-ylmethyl)-2H-pyrazolo[3,4-b]pyrazin-6-yl)amino)ethyl)phenyl)-5-methylnicotinamide], the IC50 in test [1] and in test [2] was < 300 nM throughout.

With `CCn1cc2ncc(N[C@@H](C)c3cc(NC(=O)c4ccc(N5CCN(C)CC5)c(C)c4)ccc3F)nc2n1` [Compound 412, (S)-N-(3-(1-((2-ethyl-2H-pyrazolo[3,4-b]pyrazin-6-yl)amino)ethyl)-4-fluorophenyl)-3-methyl-4-(4-methylpiperazin-1-yl)benzamide], the IC50 in test [1] and in test [2] was < 300 nM in each case.

Turning to `CCn1cc2ncc(N[C@@H](C)c3cc(NC(=O)c4ccc(N5CCN(C)CC5)c(Cl)c4)ccc3F)nc2n1` [Compound 413, (S)-3-chloro-N-(3-(1-((2-ethyl-2H-pyrazolo[3,4-b]pyrazin-6-yl)amino)ethyl)-4-fluorophenyl)-4-(4-methylpiperazin-1-yl) benzamide], the IC50 in test [1] and in test [2] was < 300 nM each time.

`CCn1cc2ncc(N[C@@H](C)c3cccc(NC(=O)c4ccc(CN5CC6(COC6)C5)c(C)c4)c3)nc2n1` [Compound 414, (S)-4-((2-oxa-6-azaspiro[3.3]heptan-6-yl)methyl)-N-(3-(1-((2-ethyl-2H-pyrazolo[3,4-b]pyrazin-6-yl)amino)ethyl)phenyl)-3-methylbenzamide]: the half-inhibitory concentration (IC50) in test [1] and in test [2] was < 300 nM in each case.

In the case of `CCn1cc2ncc(N[C@@H](C)c3cccc(NC(=O)c4ccc(CN5CC6(COC6)C5)c(Cl)c4)c3)nc2n1` [Compound 415, (S)-4-((2-oxa-6-azaspiro[3.3]heptan-6-yl)methyl)-3-chloro-N-(3-(1-((2-ethyl-2H-pyrazolo[3,4-b]pyrazin-6-yl)amino)ethyl)phenyl)benzamide], the IC50 in test [1] and in test [2] was < 300 nM in each case.

Turning to `CCn1cc2ncc(N[C@@H](C)c3cccc(NC(=O)c4ccc(CN5CCOCC5)c(Cl)c4)c3)nc2n1` [Compound 416, (S)-3-chloro-N-(3-(1-((2-ethyl-2H-pyrazolo[3,4-b]pyrazin-6-yl)amino)ethyl)phenyl)-4-(morpholinomethyl)benzamide], the half-maximal inhibitory concentration (IC50) in test [1] and in test [2] was < 300 nM each time.

For `CCn1cc2ncc(N[C@@H](C)c3cccc(NC(=O)c4ccc(CN5CCN(C)CC5)c(Cl)c4)c3)nc2n1` [Compound 417, (S)-3-chloro-N-(3-(1-((2-ethyl-2H-pyrazolo[3,4-b]pyrazin-6-yl)amino)ethyl)phenyl)-4-((4-methylpiperazin-1-yl)methyl) benzamide], the IC50 in test [1] and in test [2] was < 300 nM throughout.

With `CCn1cc2ncc(N[C@@H](C)c3cccc(NC(=O)c4ccc(CN5CCCC5)c(Cl)c4)c3)nc2n1` [Compound 418, (S)-3-chloro-N-(3-(1-((2-ethyl-2H-pyrazolo[3,4-b]pyrazin-6-yl)amino)ethyl)phenyl)-4-(pyrrolidin-1-ylmethyl) benzamide], the IC50 in test [1] and in test [2] was < 300 nM throughout.

In the case of `CCn1cc2ncc(N[C@@H](C)c3cccc(NC(=O)c4cnc(C)c(F)c4)c3)nc2n1` [Compound 419, (S)-N-(3-(1-((2-ethyl-2H-pyrazolo[3,4-b]pyrazin-6-yl)amino)ethyl)phenyl)-5-fluoro-6-methylnicotinamide], the IC50 in test [1] was 300 to 1000 nM; in test [2] it was < 300 nM.

Take `CCNc1ncc(C(=O)Nc2cccc([C@H](C)Nc3cnc4cn(CC)nc4n3)c2)cc1Cl` [Compound 420, (S)-5-chloro-N-(3-(1-((2-ethyl-2H-pyrazolo[3,4-b]pyrazin-6-yl)amino)ethyl)phenyl)-6-(ethylamino)nicotinamide]: the IC50 in test [1] and in test [2] was < 300 nM throughout.

`CCn1cc2ncc(N[C@@H](C)c3cccc(NC(=O)c4cnc(N5CCN(C)CC5)c(Cl)c4)c3)nc2n1` [Compound 421, (S)-5-chloro-N-(3-(1-((2-ethyl-2H-pyrazolo[3,4-b]pyrazin-6-yl)amino)ethyl)phenyl)-6-(4-methylpiperazin-1-yl) nicotinamide]: the half-inhibitory concentration (IC50) in test [1] and in test [2] was < 300 nM throughout.

Take `CCn1cc2ncc(N[C@@H](C)c3cccc(NC(=O)c4cnc(N5CCN(C)CC5)c(C(F)(F)F)c4)c3)nc2n1` [Compound 422, (S)-N-(3-(1-((2-ethyl-2H-pyrazolo[3,4-b]pyrazin-6-yl)amino)ethyl)phenyl)-6-(4-methylpiperazin-1-yl)-5-(trifluoromethyl)nicotinamide]: the half-maximal inhibitory concentration (IC50) in test [1] and in test [2] was < 300 nM throughout.

Take `CCn1cc2ncc(N[C@@H](C)c3cccc(NC(=O)c4ccc(CN5CCN(C)CC5)c(C(F)(F)F)c4)c3)nc2n1` [Compound 423, (S)-N-(3-(1-((2-ethyl-2H-pyrazolo[3,4-b]pyrazin-6-yl)amino)ethyl)phenyl)-4-((4-methylpiperazin-1-yl)methyl)-3-(trifluoromethyl)benzamide]: the IC50 in test [1] and in test [2] was < 300 nM in each case.

Take `CCn1cc2ncc(N[C@@H](C)c3cccc(NC(=O)c4ccc(CN5CCOCC5)c(C(F)(F)F)c4)c3)nc2n1` [Compound 424, (S)-N-(3-(1-((2-ethyl-2H-pyrazolo[3,4-b]pyrazin-6-yl)amino)ethyl)phenyl)-4-(morpholinomethyl)-3-(trifluoromethyl)benzamide]: the IC50 in test [1] and in test [2] was < 300 nM throughout.

With `CCn1cc2ncc(N[C@@H](C)c3cccc(NC(=O)c4ccc(CN5CCCC5)c(C(F)(F)F)c4)c3)nc2n1` [Compound 425, (S)-N-(3-(1-((2-ethyl-2H-pyrazolo[3,4-b]pyrazin-6-yl)amino)ethyl)phenyl)-4-(pyrrolidin-1-ylmethyl)-3-(trifluoromethyl)benzamide], the IC50 in test [1] and in test [2] was < 300 nM each time.

Consider `CCn1cc2ncc(N[C@@H](C)c3cc(NC(=O)c4ccc(CN5CCCC5)c(Cl)c4)ccc3F)nc2n1` [Compound 426, (S)-3-chloro-N-(3-(1-((2-ethyl-2H-pyrazolo[3,4-b]pyrazin-6-yl)amino)ethyl)-4-fluorophenyl)-4-(pyrrolidin-1-ylmethyl) benzamide], for which the IC50 in test [1] and in test [2] was < 300 nM each time.

For `CCn1cc2ncc(N[C@@H](C)c3cc(NC(=O)c4ccc(CN5CCOCC5)c(Cl)c4)ccc3F)nc2n1` [Compound 427, (S)-3-chloro-N-(3-(1-((2-ethyl-2H-pyrazolo[3,4-b]pyrazin-6-yl)amino)ethyl)-4-fluorophenyl)-4-(morpholinomethyl)benzamide], the IC50 in test [1] and in test [2] was < 300 nM each time.

Consider `CCn1cc2ncc(N[C@@H](C)c3cc(NC(=O)c4ccc(CN5CCOCC5)c(C(F)(F)F)c4)ccc3F)nc2n1` [Compound 428, (S)-N-(3-(1-((2-ethyl-2H-pyrazolo[3,4-b]pyrazin-6-yl)amino)ethyl)-4-fluorophenyl)-4-(morpholinomethyl)-3-(trifluoromethyl)benzamide], for which the IC50 in test [1] and in test [2] was < 300 nM in each case.
